According to PubChem BioAssay (NCI):
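How tested: cells in 96-well plates exposed to compound for 48 hours at five concentrations. GI50 = concentration required for 50% inhibition of growth. TGI is the concentration that stops growth completely.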 Where a SMILES comes first, the peptide text is derived from it. [ ]: non-standard residue; d: D form. The star is where a group is joined. NMeAc5c = CNC1(C(=O)O)CCCC1; Boc = CC(C)(C)OC(=O)*; OBn = c1ccc(CO*)cc1

How the values were obtained:
Assay in all cases: DTP human tumour cell line panel, 48 h
MOLT-4 leukemia = test system: MOLT-4 leukemia
HT29 colon = test system: HT29 colon
HCT-15 colon = test system: HCT-15 colon
UACC-257 melanoma = test system: UACC-257 melanoma
SW-620 colon = test system: SW-620 colon
CAKI-1 renal = test system: CAKI-1 renal
RPMI-8226 leukemia = test system: RPMI-8226 leukemia
A498 renal = test system: A498 renal

SMILES	TGI (MOLT-4 leukemia) [µM]	TGI (HT29 colon) [µM]	TGI (HCT-15 colon) [µM]	TGI (UACC-257 melanoma) [µM]	TGI (SW-620 colon) [µM]	TGI (CAKI-1 renal) [µM]	TGI (RPMI-8226 leukemia) [µM]	TGI (A498 renal) [µM]	GI50 (HCT-15 colon) [µM]	GI50 (SW-620 colon) [µM]	GI50 (CAKI-1 renal) [µM]	GI50 (RPMI-8226 leukemia) [µM]	GI50 (MOLT-4 leukemia) [µM]	GI50 (HT29 colon) [µM]	GI50 (UACC-257 melanoma) [µM]
COc1cc(Br)cc2cc(-c3cn4ccsc4n3)c(=O)oc12	> 100	> 100	> 100	> 100	> 100	> 100	> 100	–	–	–	–	–	–	–	–
COC(=O)c1cc(=O)nc2sc3cccc(C)c3n12	> 100	> 100	> 100	> 100	> 100	61	67.9	–	–	–	–	–	–	–	–
CN1C(=O)C2CCC(=O)N2c2cccnc21 (configuration not stated)	> 100	> 100	> 100	> 100	> 100	> 100	> 100	–	–	–	–	–	–	–	–
O=c1c2cc([N+](=O)[O-])cnc2sn1-c1ccc([N+](=O)[O-])cc1	75.6	55.8	87.5	> 100	> 100	–	81.2	–	–	–	–	–	–	–	–
O=c1ccc(-c2ccccc2)n[nH]1	> 100	> 100	> 100	> 100	> 100	> 100	–	> 100	–	–	–	–	–	–	–
Nc1nc(Cl)cc(NCC2(CO)CC(=O)C2)n1	> 100	> 100	> 100	> 100	> 100	> 100	> 100	–	–	–	–	–	–	–	–
COc1ccc2c(c1)/C(=C/CCN(C)C)c1ccccc1S2	> 100	> 100	> 100	> 100	> 100	–	–	> 100	–	–	–	–	–	–	–
O=C1CCCSC(=O)N1Cc1ccccc1	> 100	> 100	> 100	> 100	> 100	> 100	–	> 100	–	–	–	–	–	–	–
Cc1cn2c(/C=N/N=C(N)N)c(-c3cccc([N+](=O)[O-])c3)nc2s1	4.04	1.86	19.6	4.22	2.7	6.06	> 100	–	–	–	–	–	–	–	–
Cc1ccc(C(=O)O)cc1S(=O)(=O)Nn1cnc2ccc(S(=O)(=O)Nc3ccccc3C(=O)O)cc2c1=O	> 100	> 100	> 100	> 100	> 100	> 100	> 100	–	–	–	–	–	–	–	–
CCOC(=O)CSc1c(C(=O)OCC)c(=O)n(-c2ccccc2)c(=S)n1-c1ccccc1	> 100	> 100	> 100	> 100	> 100	> 100	> 100	–	–	–	–	–	–	–	–
O=C1c2ccccc2-c2c1c1ccccc1c(=O)n2CCNCCNCCNCCn1c2c(c3ccccc3c1=O)C(=O)c1ccccc1-2	–	–	2.11	–	> 100	4.19	–	–	0.579	0.194	1.44	0.0499	–	–	–
Nc1nc(SCCc2ccccc2)c2[nH]cnc2n1	> 100	> 100	> 100	67.5	> 100	> 100	–	61	–	–	–	–	–	–	–
S=C1Nc2ccccc2SC1c1ccccc1 (configuration not stated)	> 100	> 100	> 100	> 100	–	> 100	> 100	–	–	–	–	–	–	–	–
Cc1ccc(-c2n[nH]c(=O)n2N2C(=O)c3ccccc3C2=O)cc1	> 100	> 100	> 100	> 100	> 100	> 100	> 100	–	–	–	–	–	–	–	–
CCCCCCCCCCCCCCNC(=O)CCC(NC(=O)c1ccc(N(C)Cc2cnc3nc(N)nc(N)c3n2)cc1)C(=O)NCCCCCCCCCCCCCC (configuration not stated)	27.3	27	28.2	35.4	> 43	> 100	–	34.5	–	–	–	–	–	–	–
CC1CCC(n2c3cnccc3c3cnc(Nc4ccc5c(n4)CCN(C(=O)CO)C5)nc32)CC1 (configuration not stated)	> 100	> 100	> 100	> 100	> 100	> 100	> 100	–	0.418	0.278	0.536	1.43	0.211	0.596	> 100
NC(=O)NCCCC(NC(=O)OCCCCn1ccc(=O)[nH]c1=O)C(=O)O (configuration not stated)	> 100	> 100	> 100	> 100	> 100	> 100	> 100	–	–	–	–	–	–	–	–
COCO[C@@H]1C[C@H]2C(=O)Nc3ccccc3C(=O)N2C1	–	> 100	> 100	> 100	> 100	> 100	–	> 100	–	–	–	–	–	–	–
CCOC(=O)c1cn2c(n1)sc1cccc(C)c12	–	–	> 100	> 100	–	> 100	–	–	–	–	–	–	–	–	–
[N-]=[N+]=NC[C@H]1OCO[C@H](CN=[N+]=[N-])[C@@H](OCCOCCCl)[C@@H]1OCCOCCCl	> 100	> 100	> 100	> 100	> 100	> 100	> 100	–	–	–	–	–	–	–	–
CN(C(=O)C(Cc1ccccc1)NC(=O)OC(C)(C)C)C1(C(=O)NC(Cc2ccccc2)C(=O)OCc2ccccc2)CCCC1 (stereo not drawn) (Boc-Phe-[NMeAc5c]-Phe-OBn; configuration not given here)	84.2	56.7	> 100	> 100	> 100	–	57.2	–	–	–	–	–	–	–	–
